Laboratory results published in patent publication EP4803520A1, “COMPOUND CONTAINING FUSED BICYCLIC RING, PHARMACEUTICAL COMPOSITION, AND USE THEREOF” (priority 2023, dated 2025).
Values belong to the molecule of their own block, whether it stands above or below them.

How the values were obtained:
[1] = target: T1, PARP1 (Homo sapiens, UniProt P09874); assay: Assay on PARP1 protein activity (chemiluminescence assay kit)
Method: A chemiluminescence assay kit (BPS, Cat. No. 80551) was used. 50 µL of 1× histone was added to a 96-well plate and incubated overnight at 4 °C. Each well was washed 3 times with 200 µL of a PBST buffer (containing 0.05% Tween-20), and the liquid was removed from the plate. 200 µL of blocking buffer 3 was added, and the plate was blocked at room temperature for 60-90 min. The blocking solution was discarded, and the plate was washed 3 times with a PBST buffer, followed by the removal of the liquid from the plate. 25 µL of a master mix (2.5 µL of a 10× PARP buffer + 2.5 µL of a 10× biotinylated substrate assay mix + 5 µL of activated DNA (5×) + 15 µL of water) and 5 µL of a 1× PARP buffer were added to each well. Compounds were sprayed using a nanoliter pipettor in the compound groups. 20 µL of a 1× PARP buffer was added to the blank control group, and 20 µL of PARP 1 enzyme (2.4 ng/mL) was added to the other wells to initiate the reaction. The plate was incubated at room temperature for 1 h. 50 µL of streptavidin-HRP (diluted 1:50 in blocking buffer 3) was added to each well, and the plate was incubated at room temperature for 30 min. The plate was washed three times with PBST, and the liquid was removed from the plate. 50 µL of ELISA ECL substrate A and 50 µL of ELISA ECL substrate B were mixed on ice before use, and 100 µL were added to each well.

[2] = tested on: MDA-MB-436 cells; assay: Assay on inhibitory activity for MDA-MB-436 cell proliferation (CCK-8); type: cell-based; conditions: 168 h of incubation, CCK-8, absorbance at 450 nm
Method: MDA-MB-436 cells in a good growth state were collected into a centrifuge tube, adjusted to a cell density of 2 × 10^4 cells/mL using a complete medium (DMEM high glucose + 10% FBS + 1× insulin-transferrin-selenium (ITS-G) + 16 µg/mL reduced glutathione), and seeded in a 96-well plate (100 µL/well), and the plate was incubated overnight in a cell incubator. Compounds were added using a pipettor, such that the final concentrations of the compounds were 400 nM-0.02 nM. The wells were set in duplicate, and a control well was set. After 168 h of incubation in the cell incubator, the assay reagent CCK-8 (manufacturer: Dojindo Laboratories, Beijing; 10 µL/well) was added. After 1.5 h of incubation in the cell incubator, the absorbance values were measured at 450 nm on a PerkinElmer Envision microplate reader. […] Inhibitory activity results for DA-MB-436 cell proliferation of compounds

[3] = target: T1, PARP1; assay: PARP1-Tracer activity assay (FP method); type: binding; set-up: purchased BPS 80551; conditions: for PARP2/PARP 1 selectivity: ratio of PARP2 IC50 to PARP1 IC50, FP method
Method: (§1) The enzyme inhibition activity of the compounds against PARP1/2-Tracer was tested using the FP method. First, 100 nL of inhibitors with a final concentration of 1% DMSO were transferred to a 384-well reaction plate (Corning 4514) using Echo655. Then, 5 µL of a PARP1/2 (BPS, Cat. No. 80501/80502) enzyme solution was added to each well, followed by centrifugation at 1000 RPM for 1 min at room temperature, and the reaction was allowed to proceed for 10 min. Subsequently, 5 µL of a Tracer (ICE, Cat. No. 001315-009) solution was added to each well, followed by centrifugation at 1000 RPM for 1 min at room temperature, and the reaction was allowed to proceed for 60 min. PARP1/2 and Tracer were prepared in a buffer containing 50 mM Tris (pH 8.0), 10 mM MgCl2, 150 mM NaCl, and 0.001% Triox-100, with final concentrations of 5/10 nM and 2.5 nM, respectively. Finally, the FP signal was read using BMG (PHERAstar FSX), and the IC50 values and nonlinear regression curve fitting were obtained using GraphPad Prism software.

[4] = Experiment on brain distribution in rats; type: in vivo, SD rats; conditions: rat, po
[5] = Rat pharmacokinetics; type: in vivo; conditions: plasma, SD rats
Excerpt: A non-compartmental model was used for fitting to calculate relevant pharmacokinetic parameters, and the results are shown in Table 4. Table 4. Pharmacokinetic results of compounds in rats

[6] = tested on: MDA-MB-436 BRCA1m human breast cancer nude mouse subcutaneous xenograft tumor model; assay: Pharmacodynamic evaluation in nude mouse subcutaneous xenograft tumor model; type: in vivo, nude mice; conditions: ig 4 mg/kg once daily, after 22 days of administration
Method: MDA-MB-436 BRCA1m human breast cancer cells (5 × 10^6 cells/mouse) were inoculated subcutaneously into the right axilla of SPF-grade female nude mice. When the mean tumor volume reached about 150 mm^3, the animals were grouped.
The day of grouping was defined as day 0. The compound of the present application was intragastrically administered once on day 0, and was then administered once daily at a dose of 4 mg/kg with a vehicle of DMSO:PEG400 = 10:90 (v/v). The tumor volume and body weight were measured twice to thrice every week, and the data were recorded. The general behavior of the mice was observed and recorded every day. After the experiment was completed, the tumors were extracted, weighed, and photographed.
The detection parameters and the calculation formulas are as follows: Tumor volume TV (mm^3) = 1/2 × (a×b^2), [formula] where a represents the long diameter of the tumor, and b represents the short diameter of the tumor. Relative tumor volume RTV = TVt /TV0 , [formula] wherein TV0 represents the tumor volume on day 0, and TVt represents the tumor volume at each measurement. Relative tumor proliferation rate T/C (%) = (TRTV/CRTV) × 100%, [formula] where TRTV represents RTV of the treatment group, and CRTV represents RTV of the vehicle control group. […]

[7] = target: T2, PARP2 (Homo sapiens, UniProt Q9UGN5); assay: PARP2-Tracer activity assay (FP method); type: binding; conditions: PARP2 10 nM, Tracer 2.5 nM
T2 construct: purchased BPS 80502
Method: as §1

[8] = Mouse pharmacokinetics; type: in vivo; conditions: plasma, ICR mice
Excerpt: A non-compartmental model was used for fitting to calculate relevant pharmacokinetic parameters, and the results are shown in Table 3. Table 3. Pharmacokinetic results of compounds in mice

T1 sequence (P09874 whole entry): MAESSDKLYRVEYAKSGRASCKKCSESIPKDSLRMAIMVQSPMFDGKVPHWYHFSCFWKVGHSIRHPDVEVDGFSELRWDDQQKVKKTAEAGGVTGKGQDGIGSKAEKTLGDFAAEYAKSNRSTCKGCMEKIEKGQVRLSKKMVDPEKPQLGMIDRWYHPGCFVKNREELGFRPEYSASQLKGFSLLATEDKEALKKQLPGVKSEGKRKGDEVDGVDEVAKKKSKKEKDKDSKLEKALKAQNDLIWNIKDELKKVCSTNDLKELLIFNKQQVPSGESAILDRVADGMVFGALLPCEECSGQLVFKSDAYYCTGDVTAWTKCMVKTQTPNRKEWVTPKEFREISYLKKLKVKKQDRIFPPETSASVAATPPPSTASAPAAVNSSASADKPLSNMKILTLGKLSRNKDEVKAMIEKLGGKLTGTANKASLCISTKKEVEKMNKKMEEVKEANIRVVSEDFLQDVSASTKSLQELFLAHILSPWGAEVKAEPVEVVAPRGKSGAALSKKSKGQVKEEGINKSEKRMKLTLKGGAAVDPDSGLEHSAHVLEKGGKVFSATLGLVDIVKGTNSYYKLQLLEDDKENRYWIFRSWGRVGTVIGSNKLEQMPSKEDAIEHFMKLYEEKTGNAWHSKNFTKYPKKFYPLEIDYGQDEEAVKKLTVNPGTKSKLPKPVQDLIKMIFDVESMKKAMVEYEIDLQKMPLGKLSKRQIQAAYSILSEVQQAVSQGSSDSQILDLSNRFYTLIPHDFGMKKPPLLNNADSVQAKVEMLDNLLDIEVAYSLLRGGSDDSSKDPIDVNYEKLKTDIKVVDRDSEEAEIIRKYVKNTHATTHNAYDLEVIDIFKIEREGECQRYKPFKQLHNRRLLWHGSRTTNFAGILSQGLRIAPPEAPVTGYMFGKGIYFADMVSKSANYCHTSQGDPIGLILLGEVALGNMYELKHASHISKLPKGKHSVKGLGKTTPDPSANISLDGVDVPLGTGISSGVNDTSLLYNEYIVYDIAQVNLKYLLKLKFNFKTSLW
T2 sequence (Q9UGN5 whole entry): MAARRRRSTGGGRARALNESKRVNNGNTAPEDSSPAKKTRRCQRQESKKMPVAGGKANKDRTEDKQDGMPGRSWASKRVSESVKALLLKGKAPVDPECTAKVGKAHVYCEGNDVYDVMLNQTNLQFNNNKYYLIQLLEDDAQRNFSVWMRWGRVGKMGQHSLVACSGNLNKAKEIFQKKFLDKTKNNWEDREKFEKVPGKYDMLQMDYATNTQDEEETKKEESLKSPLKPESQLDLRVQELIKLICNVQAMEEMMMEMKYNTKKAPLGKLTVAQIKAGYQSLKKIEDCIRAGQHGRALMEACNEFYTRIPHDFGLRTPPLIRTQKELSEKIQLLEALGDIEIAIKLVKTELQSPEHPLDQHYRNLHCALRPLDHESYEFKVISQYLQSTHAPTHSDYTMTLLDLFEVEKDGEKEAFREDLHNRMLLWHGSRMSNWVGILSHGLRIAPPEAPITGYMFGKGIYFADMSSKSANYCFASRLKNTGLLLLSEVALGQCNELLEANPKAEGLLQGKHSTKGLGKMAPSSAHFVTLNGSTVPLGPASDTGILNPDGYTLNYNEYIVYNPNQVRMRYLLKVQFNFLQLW

IC50 [1]: < 1 nM
IC50 ([2]; Homo sapiens, MDA-MB-436): ≤ 50 nM
Compound: CNC(=O)n1cc2c(n1)CN(C1CN(Cc3ccc4c(C)c(C(F)(F)F)c(=O)[nH]c4c3)C1)C2 [Compound 50]

IC50 [1]: < 1 nM
IC50 ([2]; Homo sapiens, MDA-MB-436): ≤ 50 nM
Compound: CNC(=O)n1cc2c(n1)CN([C@H]1CN(Cc3ccc4c(C)c(C(F)(F)F)c(=O)[nH]c4c3)[C@H]1C)C2 [Compound 54]

IC50 ([2]; Homo sapiens, MDA-MB-436): ≤ 50 nM
Compound: CNC(=O)n1cc2c(n1)CN(C1CN(Cc3ccc4cc(C)c(=O)[nH]c4c3)C1)C2 [Compound 22]

PARP2/PARP 1 selectivity [3]: >200 fold
IC50 ([2]; Homo sapiens, MDA-MB-436): ≤ 50 nM
Compound: CCc1nc2ccc(CN3C[C@H](N4Cc5cn(C(=O)NC)nc5C4)[C@@H]3C)cc2[nH]c1=O [Compound 45]

IC50 ([2]; Homo sapiens, MDA-MB-436): ≤ 50 nM
Compound: CCc1cc2cc(F)c(CN3CC(N4Cc5cn(C(=O)NC)nc5C4)C3)cc2[nH]c1=O [Compound 18]

IC50 ([2]; Homo sapiens, MDA-MB-436): ≤ 50 nM
Compound: CCc1cc2c(F)cc(CN3CC(N4Cc5nc(C(=O)NC)sc5C4)C3)cc2[nH]c1=O [Compound 21]

IC50 ([2]; Homo sapiens, MDA-MB-436): ≤ 50 nM
Compound: CCc1cc2ccc(CN3CC(N4Cc5cn(C(=O)NC)nc5C4)C3)c(F)c2[nH]c1=O [Compound 29]

IC50 ([2]; Homo sapiens, MDA-MB-436): ≤ 50 nM
Compound: CNC(=O)n1cc2c(n1)CN([C@H]1CN(Cc3ccc4cc(C(F)(F)F)c(=O)[nH]c4c3)[C@H]1C)C2 [Compound 36]

IC50 [2]: ≤ 50 nM
Compound: CNC(=O)n1cc2c(n1)CN(C1CN(Cc3ccc4c5c(c(=O)[nH]c4c3)CCC5)C1)C2 [Compound 15]

IC50 ([2]; Homo sapiens, MDA-MB-436): ≤ 50 nM
Compound: CCc1cc2ccc(CN3CC(N4Cc5nc(C(=O)NC)sc5C4)C3)c(F)c2[nH]c1=O [Compound 30]

IC50 [1]: < 1 nM
Kp at 8 h ([4]; brain, 2 mg/kg, read-out: Brain-to-blood ratio): 0.082
AUC at 8 h ([4]; SD rats, ig 2 mg/kg, brain homogenate): 453 ng·h/mL
AUC(0-t) at 8 h ([4]; SD rats, ig 2 mg/kg, plasma): 5530 ng·h/mL
IC50 ([3]; FP method, PARP1 5 nM, Tracer 2.5 nM): 3.1 nM
PARP2/PARP 1 selectivity [3]: >200 fold
AUC(0-t) ([5]; iv 0.1 mg/kg): 326 ng·h/mL
half-life ([5]; iv 0.1 mg/kg): 4.74 h
AUC(0-t) ([5]; po, ig 0.5 mg/kg): 1710 ng·h/mL
Cmax ([5]; po, ig 0.5 mg/kg): 208 ng/mL
half-life ([5]; po, ig 0.5 mg/kg): 4.76 h
IC50 [7]: > 500 nM
AUC(0-t) ([8]; iv 0.1 mg/kg): 6650 ng·h/mL
half-life ([8]; iv 0.1 mg/kg): 13.6 h
AUC(0-t) ([8]; po, ig 0.1 mg/kg): 5490 ng·h/mL
Cmax ([8]; po, ig 0.1 mg/kg): 331 ng/mL
IC50 ([2]; Homo sapiens, MDA-MB-436): ≤ 50 nM
Compound: CNC(=O)n1cc2c(n1)CN([C@H]1CN(Cc3ccc4cc(C(F)(F)F)c(=O)[nH]c4c3F)[C@H]1C)C2 [Compound 55]
tumor inhibition rate [6]: up to 97%

IC50 [2]: ≤ 50 nM
Compound: O=C(NC1CC1)n1cc2c(n1)CN(C1CN(Cc3ccc4cc(C5CC5)c(=O)[nH]c4c3)C1)C2 [Compound 11]

IC50 [2]: ≤ 50 nM
Compound: CCc1cc2ncc(CN3CC(N4Cc5nc(C(=O)NC)sc5C4)C3)cc2[nH]c1=O [Compound 7]

IC50 ([2]; Homo sapiens, MDA-MB-436): ≤ 50 nM
Compound: CNC(=O)c1nc2c(s1)CN(C1CN(Cc3ccc4cc(C5CC5)c(=O)[nH]c4c3)C1)C2 [Compound 31]

Compound: CNC(=O)n1cc2c(n1)CN(C1CN(Cc3ccc4cc(C5CC5)c(=O)[nH]c4c3)C1)C2 [Compound 2]
IC50 ([2]; Homo sapiens, MDA-MB-436): ≤ 50 nM

IC50 [2]: ≤ 50 nM
Compound: CCc1cc2c(F)cc(CN3CC(N4Cc5cn(C(=O)NC)nc5C4)C3)cc2[nH]c1=O [Compound 16]

IC50 ([2]; Homo sapiens, MDA-MB-436): ≤ 50 nM
Compound: CCc1cc2ccc(CN3CC(N4Cc5cn(C(=O)N[C@@H]6CCOC6)nc5C4)C3)cc2[nH]c1=O [Compound 17]

Compound: CCc1cc2ncc(CN3C[C@H](N4Cc5cn(C(=O)NC)nc5C4)[C@@H]3C)cc2[nH]c1=O [Compound 47]
IC50 [1]: < 1 nM
IC50 ([2]; Homo sapiens, MDA-MB-436): ≤ 50 nM

IC50 [2]: ≤ 50 nM
Compound: CCNC(=O)n1cc2c(n1)CN(C1CN(Cc3ccc4cc(CC)c(=O)[nH]c4c3)C1)C2 [Compound 13]

IC50 [2]: ≤ 50 nM
Compound: CCc1cc2ccc(CN3CC(N4Cc5cn(C(=O)NC(C)C)nc5C4)C3)cc2[nH]c1=O [Compound 9]
